For data set [1] the following is noted: in vivo; cited from earlier work.
Data set [2] has as its system human phosphodiesterase III (PDE III). As to the kind of experiment: PDE III inhibition. It is filed as biochemical. The source says:
In early volunteer trials, the most frequently reported adverse effects AEs other than headache were palpitations, postural dizziness and nausea. During patient studies, the most frequently reported drug-related AEs were headache, palpitations, oedema/fluid retention, nausea/vomiting, diarrhea, dizziness and abdominal pain. These effects are all likely to arise from the secondary, cardiovascular pharmacology associated with anagrelide resulting from its inhibitory effects on human phosphodiesterase III (PDE III). […] Inhibition of myocardial PDE III leads to positive inotropy (increasing of the force of contractions of the heart), increased chronotropy (increase in heart rate), and peripheral vasodilatation. Such cardiovascular manifestations of this inhibition are typically seen with the classical positive inotropes, milrinone and enoximone, and exploited in the short-term acute treatment of congestive heart failure. However, in the treatment of a so-called silent disease (i.e., asymptomatic) such as ET, the cardiovascular side-effects of palpitations and tachycardia associated with anagrelide limit its utility and a significant proportion of patients—reportedly between 25 and 50%—fail to tolerate the drug during long term treatment.

Data set [3] is described as follows: Pharmacokinetics in humans. It is filed as in vivo, human. The settings on record: after anagrelide treatment. The text has this: The metabolism of anagrelide generally proceeds extremely rapidly, resulting in a less than ideal pharmacokinetic profile of the drug. […] This, combined with the side-effects profile, can lead to poor patient compliance. Furthermore, anagrelide undergoes a large first pass effect (>50%) leading to considerable intersubject variation in achieved exposures and, therefore, potentially variable drug response. Also, exposure to the pharmacologically active metabolite varies dramatically between patients since its formation is dependent on CYP1A, an enzyme whose expression is highly dependent on exposure to inducing agents such as cigarette smoke. Overall, this may result in the need for careful dose titration in patients being treated with anagrelide.

Data set [4] concerns human megakaryocytopoiesis. The settings on record: cited from earlier work.
Data set [5] concerns erythroid or myelomonocytic differentiation. The settings on record: stimulated by erythropoietin or granulocyte-macrophage colony-stimulating factor; cited from earlier work.
For data set [6], the target named is human phosphodiesterase III (PDE III). The settings on record: cited from earlier work.

Counter-ions that a name gives are not always drawn.

With `O=C1NC2=Nc3ccc(Cl)c(Cl)c3CN2C1O` (stereo not drawn) [3-hydroxyanagrelide], the typical half-life in data set [1] is 2.5 h. Moreover, the “potency as PDE III inhibitor relative to anagrelide” value in data set [2] is recorded as “over 40 fold”. For the same compound, the “exposure in vivo relative to the parent drug” value in data set [3] is recorded as 2-3 fold. Besides, in data set [4], the “potency of inhibition of megakaryocytopoiesis relative to the parent drug” value was “no more potent than the parent drug”.

A word on the IC50: it is the point on the concentration scale where inhibition reaches its midpoint. Turning to `O=C1CN2Cc3c(ccc(Cl)c3Cl)N=C2N1` [Anagrelide, 6,7-dichloro-1,5-dihydroimidazo[2,1-b]-quinazolin-2(3H)-one hydrochloride monohydrate], the first pass effect in data set [1] is reported as over 50%. Moreover, the “effect on erythroid or myelomonocytic differentiation” value in data set [5] is “does not affect”. Further, the IC50 in data set [4] (in vitro, dose-dependent, read-out: estimated IC50, inhibition of TPO-induced megakaryocytopoiesis) was about 0.026 µM; in data set [6], about 0.029 µM.

As for `Cc1[nH]c(=O)c(C#N)cc1-c1ccncc1` [milrinone], in data set [6], the 50% inhibitory concentration (IC50) was 0.17 to 0.35 µM.

These data come from patent US20110086851A1, “SUBSTITUTED QUINAZOLINES AND THEIR USES FOR MYEOLOPROLIFIC AND THROMBOTIC DISEASES” (priority 2008, published 2011).
